Read-outs that look alike come from different tables or passages of the source.
Assays:
barnyardgrass [1] = assay: Test B pre-/postemergence herbicide test; format: in vivo, Echinochloa crus-galli; settings: Echinochloa crus-galli; for pest or weed control at 500 g/ha: 500 g ai/ha; for pest or weed control at 125 g/ha: 125 g ai/ha
Summary of the method: (§1)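 Species tested were Echinochloa crus-galli, Ipomoea coccinea, Xanthium strumarium and Oryza sativa, treated both before emergence and at the 1- to 4-leaf stage; rice and barnyardgrass were also tested under flooding at 2 leaves. Greenhouse incubation lasted 13–15 days before visual 0–100 scoring.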

Surinam grass = assay: Test B pre-/postemergence herbicide test; format: in vivo, Urochloa decumbens; settings: Urochloa decumbens; for pest or weed control at 500 g/ha: 500 g ai/ha; for pest or weed control at 125 g/ha: 125 g ai/ha
Summary of the method: (§2)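 Evaluation is visual, comparing treated with control plants on a scale where 0 means no effect and 100 means full control. Treatments were preemergence, or postemergence on seedlings 2–18 cm tall, and held 13–15 days in the greenhouse.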

cocklebur = assay: Test B pre-/postemergence herbicide test; format: in vivo, Xanthium strumarium; settings: Xanthium strumarium; for pest or weed control at 500 g/ha: 500 g ai/ha; for pest or weed control at 125 g/ha: 125 g ai/ha
Summary of the method: as §1

corn = assay: Test B pre-/postemergence herbicide test; format: in vivo, Zea mays; settings: Zea mays
Summary of the method: as §2

large crabgrass = assay: Test B pre-/postemergence herbicide test; format: in vivo, Digitaria sanguinalis; settings: Digitaria sanguinalis; for pest or weed control at 500 g/ha: 500 g ai/ha; for pest or weed control at 125 g/ha: 125 g ai/ha
Summary of the method: as §2

giant foxtail = assay: Test B pre-/postemergence herbicide test; format: in vivo, Setaria faberi; settings: Setaria faberi, 336 h; for pest or weed control at 500 g/ha: 500 g ai/ha; for pest or weed control at 125 g/ha: 125 g ai/ha
Summary of the method: as §2

lambsquarters = assay: Test B pre-/postemergence herbicide test; format: in vivo, Chenopodium album; settings: Chenopodium album, 336 h; for pest or weed control at 500 g/ha: 500 g ai/ha; for pest or weed control at 125 g/ha: 125 g ai/ha
Summary of the method: as §2

morningglory = assay: Test B pre-/postemergence herbicide test; format: in vivo, Ipomoea coccinea; settings: Ipomoea, 336 h; for pest or weed control at 500 g/ha: 500 g ai/ha; for pest or weed control at 125 g/ha: 125 g ai/ha
Summary of the method: as §1

pigweed = assay: Test B pre-/postemergence herbicide test; format: in vivo, Amaranthus retroflexus; settings: Amaranthus retroflexus, 336 h; for pest or weed control at 500 g/ha: 500 g ai/ha; for pest or weed control at 125 g/ha: 125 g ai/ha
Summary of the method: as §2

blackgrass = assay: Test B postemergence herbicide test; format: in vivo, Alopecurus myosuroides; settings: Postemergence, 500 g ai/ha; visual rating after 13 to 15 days, scale 0 (no effect) to 100 (complete control)
Summary of the method: (§3)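 Plants grow to 1- to 4-leaf stage (2–18 cm) for postemergence spraying, or to 2-leaf stage for the paddy test. Formulated compound is applied. Greenhouse holding lasts 13–15 days. Response is scored visually relative to controls, 0 no effect to 100 complete control; a dash means no result.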

wheat = assay: Test B postemergence herbicide test; format: in vivo, Triticum aestivum; settings: scale 0 (no effect) to 100 (complete control)
Summary of the method: as §3

wild oat = assay: Test B postemergence herbicide test; format: in vivo, Avena fatua; settings: scale 0 (no effect) to 100 (complete control)
Summary of the method: as §3

rice = assay: Test B flooded paddy test; format: in vivo, Oryza sativa; settings: Oryza sativa, 336 h, 1000 g ai/ha, visual rating, scale 0 to 100 (0 no effect, 100 complete control), 13 to 15 days, read-out: Rice plant response rating
Summary of the method: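 Each value is a visual 0–100 response rating taken against controls 13 to 15 days after treatment in the greenhouse. Plants received formulated chemical postemergence at the 1- to 4-leaf stage or, in flooded paddy, at the 2-leaf stage.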

[2] = tested on: small flower umbrella sedge; assay: Test B flooded paddy test; format: in vivo, Cyperus difformis; settings: Cyperus difformis, 336 h, 1000 g ai/ha, visual rating, scale 0 to 100 (0 no effect, 100 complete control), 13 to 15 days, read-out: Sedge, Umbrella plant response rating
Summary of the method: as §3

ducksalad = assay: Test B flooded paddy test; format: in vivo, Heteranthera limosa; settings: Heteranthera limosa, 336 h, 1000 g ai/ha, visual rating, scale 0 to 100 (0 no effect, 100 complete control), 13 to 15 days, read-out: Ducksalad plant response rating
Summary of the method: as §3

barnyardgrass [3] = assay: Test B flooded paddy test; format: in vivo, Echinochloa crus-galli; settings: Echinochloa crus-galli, 336 h, 1000 g ai/ha, visual rating, scale 0 to 100 (0 no effect, 100 complete control), 13 to 15 days, read-out: Barnyardgrass plant response rating
Summary of the method: as §3

[4] = Postemergence, 500 g ai/ha, visual rating after 13 to 15 days

Question: Which pest or weed control at 500 g/ha (barnyardgrass [1]; post-emergence, Postemergence, visual rating after 13 to 15 days, scale 0 (no effect) to 100 (complete control), read-out: Plant response rating, Barnyardgrass) does the source give for `CCn1nc(C(C)(C)C)cc1C(=O)Nc1cccc2c1CN(C)C2=O` [Compound 55, N-(2,3-dihydro-2-methyl-1-oxo-1H-isoindol-4-yl)-3-(1,1-dimethylethyl)-1-ethyl-1H-pyrazole-5-carboxamide] here?
Answer: 10%

Question: What about the pest or weed control at 125 g/ha (barnyardgrass [1]; post-emergence, postemergence, visual rating, scale 0 (no effect) to 100 (complete control), read-out: Barnyardgrass plant response rating) of the same compound?
Answer: 10%

Question: And the pest or weed control at 500 g/ha (barnyardgrass [1]; pre-emergence, Preemergence, scale 0 to 100, read-out: Barnyardgrass plant response rating)?
Answer: 100%

Question: What about the pest or weed control at 125 g/ha (barnyardgrass [1]; pre-emergence, preemergence, 0 to 100 scale, 0 is no effect, 100 is complete control, read-out: Plant response rating, Barnyardgrass) of the same compound?
Answer: 80%

Question: And the pest or weed control at 500 g/ha (Surinam grass; post-emergence, Postemergence, visual rating after 13 to 15 days, scale 0 (no effect) to 100 (complete control), read-out: Plant response rating, Surinam Grass)?
Answer: 10%

Question: And the pest or weed control at 125 g/ha (Surinam grass; post-emergence, postemergence, visual rating, scale 0 (no effect) to 100 (complete control), read-out: Surinam Grass plant response rating)?
Answer: 10%

Question: And the pest or weed control at 500 g/ha (Surinam grass; pre-emergence, Preemergence, scale 0 to 100, read-out: Surinam Grass plant response rating)?
Answer: 80%

Question: What about the pest or weed control at 125 g/ha (Surinam grass; pre-emergence, preemergence, 0 to 100 scale, 0 is no effect, 100 is complete control, read-out: Plant response rating, Surinam Grass) of the same compound?
Answer: 50%

Question: What about the pest or weed control at 500 g/ha (cocklebur; post-emergence, Postemergence, visual rating after 13 to 15 days, scale 0 (no effect) to 100 (complete control), read-out: Plant response rating, Cocklebur) of the same compound?
Answer: 40%

Question: What about the pest or weed control at 125 g/ha (cocklebur; post-emergence, postemergence, visual rating, scale 0 (no effect) to 100 (complete control), read-out: Cocklebur plant response rating) of the same compound?
Answer: 10%

Question: What about the pest or weed control at 500 g/ha (cocklebur; pre-emergence, Preemergence, scale 0 to 100, read-out: Cocklebur plant response rating) of the same compound?
Answer: 10%

Question: And the pest or weed control at 125 g/ha (cocklebur; pre-emergence, preemergence, 0 to 100 scale, 0 is no effect, 100 is complete control, read-out: Plant response rating, Cocklebur)?
Answer: 0%

Question: And the Corn plant response rating (crop injury, 0 = no effect, 100 = complete kill) at 500 g/ha (corn; post-emergence, Postemergence, 500 g ai/ha, visual rating after 13 to 15 days, scale 0 (no effect) to 100 (complete control))?
Answer: 30%

Question: What about the plant injury at 125 g/ha (corn; post-emergence, postemergence, 125 g ai/ha, visual rating, scale 0 (no effect) to 100 (complete control), read-out: Corn plant response rating) of the same compound?
Answer: 20%

Question: What about the plant injury at 500 g/ha (corn; pre-emergence, Preemergence, 500 g ai/ha, scale 0 to 100, read-out: Corn plant response rating) of the same compound?
Answer: 20%

Question: What about the Corn plant response rating (crop injury, 0 = no effect, 100 = complete kill) at 125 g/ha (corn; pre-emergence, preemergence, 125 g ai/ha, 0 to 100 scale, 0 is no effect, 100 is complete control) of the same compound?
Answer: 0%

Question: And the pest or weed control at 500 g/ha (large crabgrass; post-emergence, Postemergence, visual rating after 13 to 15 days, scale 0 (no effect) to 100 (complete control), read-out: Plant response rating, Crabgrass, Large)?
Answer: 10%

Question: And the pest or weed control at 125 g/ha (large crabgrass; post-emergence, postemergence, visual rating, scale 0 (no effect) to 100 (complete control), read-out: Crabgrass, Large plant response rating)?
Answer: 10%

Question: What about the pest or weed control at 500 g/ha (large crabgrass; pre-emergence, Preemergence, scale 0 to 100, read-out: Crabgrass, Large plant response rating) of the same compound?
Answer: 100%

Question: What about the pest or weed control at 125 g/ha (large crabgrass; pre-emergence, preemergence, 0 to 100 scale, 0 is no effect, 100 is complete control, read-out: Plant response rating, Crabgrass, Large) of the same compound?
Answer: 90%

Question: What about the pest or weed control at 500 g/ha (giant foxtail; post-emergence, Postemergence, visual rating after 13 to 15 days, scale 0 (no effect) to 100 (complete control), read-out: Plant response rating, Foxtail, Giant) of the same compound?
Answer: 10%

Question: And the pest or weed control at 125 g/ha (giant foxtail; post-emergence, postemergence, visual rating, scale 0 (no effect) to 100 (complete control), read-out: Foxtail, Giant plant response rating)?
Answer: 0%

Question: What about the pest or weed control at 500 g/ha (giant foxtail; pre-emergence, Preemergence, scale 0 to 100, read-out: Foxtail, Giant plant response rating) of the same compound?
Answer: 100%

Question: And the pest or weed control at 125 g/ha (giant foxtail; pre-emergence, preemergence, 0 to 100 scale, 0 is no effect, 100 is complete control, read-out: Plant response rating, Foxtail, Giant)?
Answer: 60%

Question: And the pest or weed control at 500 g/ha (lambsquarters; post-emergence, Postemergence, visual rating after 13 to 15 days, scale 0 (no effect) to 100 (complete control), read-out: Plant response rating, Lambsquarters)?
Answer: 70%

Question: And the pest or weed control at 125 g/ha (lambsquarters; post-emergence, postemergence, visual rating, scale 0 (no effect) to 100 (complete control), read-out: Lambsquarters plant response rating)?
Answer: 70%

Question: What about the pest or weed control at 500 g/ha (lambsquarters; pre-emergence, Preemergence, scale 0 to 100, read-out: Lambsquarters plant response rating) of the same compound?
Answer: 100%

Question: What about the pest or weed control at 125 g/ha (lambsquarters; pre-emergence, preemergence, 0 to 100 scale, 0 is no effect, 100 is complete control, read-out: Plant response rating, Lambsquarters) of the same compound?
Answer: 70%

Question: And the pest or weed control at 500 g/ha (morningglory; post-emergence, Postemergence, visual rating after 13 to 15 days, scale 0 (no effect) to 100 (complete control), read-out: Plant response rating, Morningglory)?
Answer: 10%

Question: What about the pest or weed control at 125 g/ha (morningglory; post-emergence, postemergence, visual rating, scale 0 (no effect) to 100 (complete control), read-out: Morningglory plant response rating) of the same compound?
Answer: 10%

Question: What about the pest or weed control at 500 g/ha (morningglory; pre-emergence, Preemergence, scale 0 to 100, read-out: Morningglory plant response rating) of the same compound?
Answer: 10%

Question: What about the pest or weed control at 125 g/ha (morningglory; pre-emergence, preemergence, 0 to 100 scale, 0 is no effect, 100 is complete control, read-out: Plant response rating, Morningglory) of the same compound?
Answer: 0%

Question: And the pest or weed control at 500 g/ha (pigweed; post-emergence, Postemergence, visual rating after 13 to 15 days, scale 0 (no effect) to 100 (complete control), read-out: Plant response rating, Pigweed)?
Answer: 40%

Question: And the pest or weed control at 125 g/ha (pigweed; post-emergence, postemergence, visual rating, scale 0 (no effect) to 100 (complete control), read-out: Pigweed plant response rating)?
Answer: 10%

Question: And the pest or weed control at 500 g/ha (pigweed; pre-emergence, Preemergence, scale 0 to 100, read-out: Pigweed plant response rating)?
Answer: 100%

Question: What about the pest or weed control at 125 g/ha (pigweed; pre-emergence, preemergence, 0 to 100 scale, 0 is no effect, 100 is complete control, read-out: Plant response rating, Pigweed) of the same compound?
Answer: 80%

Question: And the “Plant response rating, Blackgrass” value (blackgrass)?
Answer: 10

Question: What about the “Plant response rating, Wheat” value (wheat; [4]) of the same compound?
Answer: 10

Question: What about the plant injury at 125 g/ha (wheat; Triticum aestivum, post-emergence, 336 h, postemergence, 125 g ai/ha, visual rating, read-out: Wheat plant response rating) of the same compound?
Answer: 10%

Question: What about the pest or weed control at 125 g/ha (wild oat; Avena fatua, post-emergence, 336 h, postemergence, 125 g ai/ha, visual rating, read-out: Oat, Wild plant response rating) of the same compound?
Answer: 10%

Question: What about the “Plant response rating, Oat, Wild” value (wild oat; [4]) of the same compound?
Answer: 20

Question: What about the plant injury at 1000 g/ha (rice) of the same compound?
Answer: 70%

Question: What about the pest or weed control at 1000 g/ha [2] of the same compound?
Answer: 80%

Question: And the pest or weed control at 1000 g/ha (ducksalad)?
Answer: 80%

Question: And the pest or weed control at 1000 g/ha (barnyardgrass [3])?
Answer: 90%
